# From PMC3445516 (PLoS ONE, 2012)
# Where two headings read alike, the source gives them in different places.
# How the values were obtained:
# Test in all cases: Ambit kinase profiling, competition binding
# BRAF = biological target: T1, BRAF (Homo sapiens, UniProt P15056)
# T1 construct: purchased Ambit Biosciences (KINOMEscan)
# Procedure: (§1) Also included in the kinase profile are four isoforms of PKC (δ, ε, η, θ) and eight isoforms of CAMKs (CAMKIα, δ, γ; CAMKIIα, β, δ, γ; CAMK4).
# (§2) The global kinase profiling experiment was performed by Ambit Biosciences.
# CDK2 = biological target: T2, CDK2 (Homo sapiens, UniProt P24941); conditions: for % Competition: 10 µM
# T2 construct: purchased Ambit Biosciences (KINOMEscan)
# Procedure: as §1, §2
# CSNK1E = biological target: T3, CSNK1E (Homo sapiens, UniProt P49674)
# T3 construct: purchased Ambit Biosciences (KINOMEscan)
# T3 sequence (P49674 whole entry): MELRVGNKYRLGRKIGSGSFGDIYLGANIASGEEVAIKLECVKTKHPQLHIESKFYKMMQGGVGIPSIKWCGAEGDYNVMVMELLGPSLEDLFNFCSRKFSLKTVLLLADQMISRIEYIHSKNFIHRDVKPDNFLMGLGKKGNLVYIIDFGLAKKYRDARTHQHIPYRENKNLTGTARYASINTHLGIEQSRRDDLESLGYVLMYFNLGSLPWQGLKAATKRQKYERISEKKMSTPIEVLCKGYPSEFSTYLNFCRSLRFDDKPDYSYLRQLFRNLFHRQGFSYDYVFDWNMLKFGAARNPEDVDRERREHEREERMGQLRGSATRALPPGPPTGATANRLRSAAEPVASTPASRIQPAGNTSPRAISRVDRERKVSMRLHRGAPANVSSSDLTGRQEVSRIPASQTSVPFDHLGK
# Procedure: as §1, §2
# CSNK1G1 = biological target: T4, CSNK1G1 (Homo sapiens, UniProt Q9HCP0); conditions: for % Competition: 10 µM
# T4 construct: purchased Ambit Biosciences (KINOMEscan)
# T4 sequence (Q9HCP0 whole entry): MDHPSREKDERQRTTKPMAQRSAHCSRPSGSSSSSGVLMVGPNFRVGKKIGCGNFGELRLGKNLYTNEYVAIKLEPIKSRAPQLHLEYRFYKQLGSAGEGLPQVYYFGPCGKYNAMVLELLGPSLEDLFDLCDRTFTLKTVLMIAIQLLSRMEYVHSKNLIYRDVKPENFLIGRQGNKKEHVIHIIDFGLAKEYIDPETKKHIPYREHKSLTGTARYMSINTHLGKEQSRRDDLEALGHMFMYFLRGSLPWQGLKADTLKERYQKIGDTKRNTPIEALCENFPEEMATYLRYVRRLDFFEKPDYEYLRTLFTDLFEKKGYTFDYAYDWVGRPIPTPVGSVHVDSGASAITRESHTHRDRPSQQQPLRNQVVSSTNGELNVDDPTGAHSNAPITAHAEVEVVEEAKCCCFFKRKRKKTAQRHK
# Procedure: as §1, §2
# DYRK1B = biological target: T5, DYRK1B (Homo sapiens, UniProt Q9Y463)
# T5 construct: purchased Ambit Biosciences (KINOMEscan)
# T5 sequence (Q9Y463 whole entry): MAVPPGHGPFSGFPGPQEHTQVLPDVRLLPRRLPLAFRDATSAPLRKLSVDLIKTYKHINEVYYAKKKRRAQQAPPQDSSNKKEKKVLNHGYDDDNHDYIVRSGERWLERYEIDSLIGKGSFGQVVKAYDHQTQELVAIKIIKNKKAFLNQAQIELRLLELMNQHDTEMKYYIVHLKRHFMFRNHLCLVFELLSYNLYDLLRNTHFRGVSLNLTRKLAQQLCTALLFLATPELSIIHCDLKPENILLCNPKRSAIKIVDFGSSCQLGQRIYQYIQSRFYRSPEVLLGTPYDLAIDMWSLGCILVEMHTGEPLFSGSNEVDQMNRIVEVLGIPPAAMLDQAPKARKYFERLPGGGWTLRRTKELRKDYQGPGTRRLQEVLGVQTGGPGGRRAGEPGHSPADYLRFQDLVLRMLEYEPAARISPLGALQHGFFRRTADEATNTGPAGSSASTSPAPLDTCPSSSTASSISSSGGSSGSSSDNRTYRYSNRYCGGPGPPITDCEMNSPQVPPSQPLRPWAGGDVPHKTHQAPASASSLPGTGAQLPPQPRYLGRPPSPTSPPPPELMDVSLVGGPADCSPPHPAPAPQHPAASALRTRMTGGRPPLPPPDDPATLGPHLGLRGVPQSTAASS
# Procedure: as §1, §2
# EGFR(L858R) = biological target: T6, EGFR(L858R) (Homo sapiens, UniProt P00533, L858R); conditions: for % Competition: 10 µM
# T6 construct: purchased Ambit Biosciences (KINOMEscan)
# Procedure: as §1, §2
# FRK = biological target: T7, FRK (Homo sapiens, UniProt P42685)
# T7 construct: purchased Ambit Biosciences (KINOMEscan)
# T7 sequence (P42685 whole entry): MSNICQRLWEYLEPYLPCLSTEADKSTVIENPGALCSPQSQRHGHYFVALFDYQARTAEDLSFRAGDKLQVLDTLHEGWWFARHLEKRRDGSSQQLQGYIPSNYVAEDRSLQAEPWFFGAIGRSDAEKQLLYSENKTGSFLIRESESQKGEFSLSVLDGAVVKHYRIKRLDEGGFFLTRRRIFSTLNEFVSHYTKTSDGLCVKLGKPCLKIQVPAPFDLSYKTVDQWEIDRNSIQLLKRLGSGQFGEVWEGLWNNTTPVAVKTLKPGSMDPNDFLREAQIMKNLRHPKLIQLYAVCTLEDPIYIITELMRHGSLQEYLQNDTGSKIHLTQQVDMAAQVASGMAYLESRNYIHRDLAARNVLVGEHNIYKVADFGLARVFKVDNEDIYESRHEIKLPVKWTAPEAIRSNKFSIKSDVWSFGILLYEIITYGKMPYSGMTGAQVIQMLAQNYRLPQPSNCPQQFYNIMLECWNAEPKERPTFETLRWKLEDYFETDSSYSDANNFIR
# Procedure: as §1, §2
# JNK1 = biological target: T8, JNK1 (Homo sapiens, UniProt P45983); conditions: for % Competition: 10 µM
# T8 construct: purchased Ambit Biosciences (KINOMEscan)
# T8 sequence (P45983 whole entry): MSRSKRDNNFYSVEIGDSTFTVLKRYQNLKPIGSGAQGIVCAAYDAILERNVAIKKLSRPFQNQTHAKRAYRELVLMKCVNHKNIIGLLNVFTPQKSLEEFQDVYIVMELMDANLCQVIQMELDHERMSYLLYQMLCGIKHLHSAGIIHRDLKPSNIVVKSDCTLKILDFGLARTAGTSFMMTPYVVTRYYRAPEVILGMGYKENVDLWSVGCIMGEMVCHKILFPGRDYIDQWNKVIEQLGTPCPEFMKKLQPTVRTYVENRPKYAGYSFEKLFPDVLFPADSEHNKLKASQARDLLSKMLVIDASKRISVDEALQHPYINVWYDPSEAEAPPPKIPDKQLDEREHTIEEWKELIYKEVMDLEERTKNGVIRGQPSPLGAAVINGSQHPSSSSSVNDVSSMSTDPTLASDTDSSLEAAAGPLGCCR
# Procedure: as §1, §2
# LATS1 = biological target: T9, LATS1 (Homo sapiens, UniProt O95835)
# T9 construct: purchased Ambit Biosciences (KINOMEscan)
# T9 sequence (O95835 1-1130): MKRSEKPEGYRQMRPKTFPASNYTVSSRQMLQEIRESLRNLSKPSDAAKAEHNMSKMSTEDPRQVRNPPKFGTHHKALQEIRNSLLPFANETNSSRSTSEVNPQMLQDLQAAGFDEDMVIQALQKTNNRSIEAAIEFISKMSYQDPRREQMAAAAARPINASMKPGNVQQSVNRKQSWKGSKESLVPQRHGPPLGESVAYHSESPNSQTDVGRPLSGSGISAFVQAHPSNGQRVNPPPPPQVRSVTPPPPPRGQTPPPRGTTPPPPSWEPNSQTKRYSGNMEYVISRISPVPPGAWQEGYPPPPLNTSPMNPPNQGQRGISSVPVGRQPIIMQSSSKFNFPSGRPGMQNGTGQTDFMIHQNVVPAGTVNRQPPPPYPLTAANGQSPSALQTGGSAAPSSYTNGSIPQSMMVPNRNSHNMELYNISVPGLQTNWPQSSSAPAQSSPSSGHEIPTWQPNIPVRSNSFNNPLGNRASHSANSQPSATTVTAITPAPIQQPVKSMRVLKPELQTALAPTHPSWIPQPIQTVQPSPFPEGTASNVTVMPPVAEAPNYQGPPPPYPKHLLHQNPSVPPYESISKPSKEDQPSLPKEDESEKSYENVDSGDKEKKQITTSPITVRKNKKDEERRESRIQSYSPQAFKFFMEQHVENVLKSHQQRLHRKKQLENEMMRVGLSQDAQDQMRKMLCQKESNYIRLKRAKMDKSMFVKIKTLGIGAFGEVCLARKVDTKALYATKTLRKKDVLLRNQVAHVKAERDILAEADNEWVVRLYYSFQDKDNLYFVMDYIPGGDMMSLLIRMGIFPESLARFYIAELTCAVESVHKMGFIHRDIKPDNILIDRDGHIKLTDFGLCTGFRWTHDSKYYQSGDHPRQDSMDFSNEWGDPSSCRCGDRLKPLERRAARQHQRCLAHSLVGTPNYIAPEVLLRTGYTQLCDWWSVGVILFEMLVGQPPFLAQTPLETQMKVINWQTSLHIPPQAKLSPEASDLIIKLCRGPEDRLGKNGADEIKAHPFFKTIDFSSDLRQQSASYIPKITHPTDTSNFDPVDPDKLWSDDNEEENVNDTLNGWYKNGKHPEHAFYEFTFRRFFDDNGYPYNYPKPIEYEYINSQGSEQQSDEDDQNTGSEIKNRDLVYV
# Procedure: as §1, §2
# MEK6 = biological target: T10, MEK6 (Homo sapiens, UniProt P52564)
# T10 construct: purchased Ambit Biosciences (KINOMEscan)
# T10 sequence (P52564 1-334): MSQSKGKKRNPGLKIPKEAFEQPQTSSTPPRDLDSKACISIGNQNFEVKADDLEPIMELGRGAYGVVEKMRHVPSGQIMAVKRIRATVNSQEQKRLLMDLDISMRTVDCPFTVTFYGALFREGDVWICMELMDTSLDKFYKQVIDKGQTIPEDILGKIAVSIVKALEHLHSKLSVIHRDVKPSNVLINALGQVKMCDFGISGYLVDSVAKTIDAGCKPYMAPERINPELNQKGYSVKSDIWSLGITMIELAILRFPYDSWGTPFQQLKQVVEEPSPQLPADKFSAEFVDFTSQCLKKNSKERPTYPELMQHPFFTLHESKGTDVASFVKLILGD
# Procedure: as §1, §2
# MRCKB = biological target: T11, MRCKB (Homo sapiens, UniProt Q9Y5S2)
# T11 construct: purchased Ambit Biosciences (KINOMEscan)
# Procedure: as §1, §2
# STK35 = biological target: T12, STK35 (Homo sapiens, UniProt Q8TDR2)
# T12 construct: purchased Ambit Biosciences (KINOMEscan)
# T12 sequence (Q8TDR2 whole entry): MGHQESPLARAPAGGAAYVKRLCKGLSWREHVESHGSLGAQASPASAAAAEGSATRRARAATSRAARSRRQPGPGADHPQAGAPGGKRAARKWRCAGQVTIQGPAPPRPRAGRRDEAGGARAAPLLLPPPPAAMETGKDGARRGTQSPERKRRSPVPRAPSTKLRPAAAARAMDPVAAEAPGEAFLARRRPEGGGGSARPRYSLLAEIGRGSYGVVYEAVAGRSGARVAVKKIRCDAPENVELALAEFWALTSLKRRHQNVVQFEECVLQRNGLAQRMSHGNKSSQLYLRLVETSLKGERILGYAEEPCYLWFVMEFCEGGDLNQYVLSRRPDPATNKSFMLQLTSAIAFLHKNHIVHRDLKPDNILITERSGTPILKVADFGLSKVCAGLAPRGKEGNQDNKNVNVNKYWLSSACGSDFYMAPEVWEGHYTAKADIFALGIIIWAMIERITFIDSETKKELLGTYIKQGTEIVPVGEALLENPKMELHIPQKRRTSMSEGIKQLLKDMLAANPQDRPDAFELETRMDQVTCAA
# Procedure: as §1, §2
# T1 sequence (P15056 whole entry): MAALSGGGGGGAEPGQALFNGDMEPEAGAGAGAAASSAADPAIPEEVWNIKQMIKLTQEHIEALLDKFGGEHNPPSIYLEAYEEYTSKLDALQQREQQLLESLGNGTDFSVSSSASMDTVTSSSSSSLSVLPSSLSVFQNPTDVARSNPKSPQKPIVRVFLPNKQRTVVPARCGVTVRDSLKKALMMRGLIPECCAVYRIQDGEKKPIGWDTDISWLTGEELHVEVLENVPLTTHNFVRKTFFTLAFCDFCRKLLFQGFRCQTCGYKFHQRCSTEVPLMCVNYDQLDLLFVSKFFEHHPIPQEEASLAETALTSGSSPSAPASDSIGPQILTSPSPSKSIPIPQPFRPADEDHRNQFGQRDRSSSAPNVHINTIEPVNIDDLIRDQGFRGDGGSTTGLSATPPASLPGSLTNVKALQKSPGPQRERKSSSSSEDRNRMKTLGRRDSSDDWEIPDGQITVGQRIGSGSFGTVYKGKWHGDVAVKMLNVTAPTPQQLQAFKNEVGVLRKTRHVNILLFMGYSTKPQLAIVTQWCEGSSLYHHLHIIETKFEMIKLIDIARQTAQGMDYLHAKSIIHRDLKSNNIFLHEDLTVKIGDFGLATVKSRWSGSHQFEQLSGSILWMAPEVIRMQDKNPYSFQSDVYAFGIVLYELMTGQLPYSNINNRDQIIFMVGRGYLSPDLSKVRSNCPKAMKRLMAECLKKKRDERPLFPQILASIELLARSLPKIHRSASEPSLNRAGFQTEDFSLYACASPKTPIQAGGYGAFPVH
structure (smiles),measurement,setting,value
Fc1ccc(-c2c(-c3ccncc3)[nH]c3nccnc23)cc1 [Compound 122],inhibition at 10 µM,"BRAF; BRAF, 10 µM, read-out: % Competition",97%
same,% Competition,CDK2,93%
same,inhibition at 10 µM,"CSNK1E; CSNK1E, 10 µM, read-out: % Competition",100%
same,% Competition,CSNK1G1,78%
same,inhibition at 10 µM,"DYRK1B; DYRK1B, 10 µM, read-out: % Competition",79%
same,% Competition,EGFR(L858R),98%
same,inhibition at 10 µM,"FRK; FRK, 10 µM, read-out: % Competition",85%
same,% Competition,JNK1,100%
same,inhibition at 10 µM,"LATS1; LATS1, 10 µM, read-out: % Competition",68%
same,inhibition at 10 µM,"MEK6; MEK6, 10 µM, read-out: % Competition",66%
same,inhibition at 10 µM,"MRCKB; MRCKB, 10 µM, read-out: % Competition",98%
same,inhibition at 10 µM,"STK35; STK35, 10 µM, read-out: % Competition",79%
CC(O)CNc1cc(-c2[nH]c3cccnc3c2-c2ccc(F)cc2)ccn1 (stereo not drawn) [Compound 140],inhibition at 10 µM,BRAF; read-out: % Competition,76%
same,% Competition,CDK2,<50%
same,inhibition at 10 µM,"CSNK1E; read-out: % Competition, CSNK1E, 10 µM",99 to 100%
same,% Competition,CSNK1G1,94%
same,inhibition at 10 µM,DYRK1B; read-out: % Competition,< 50%
same,% Competition,EGFR(L858R),84%
same,inhibition at 10 µM,FRK; read-out: % Competition,< 50%
same,% Competition,JNK1,100%
same,inhibition at 10 µM,LATS1; read-out: % Competition,< 50%
same,inhibition at 10 µM,MEK6; read-out: % Competition,< 50%
same,inhibition at 10 µM,MRCKB; read-out: % Competition,< 50%
same,inhibition at 10 µM,STK35; read-out: % Competition,< 50%
Fc1ccc(-c2c(-c3ccncc3)[nH]c3nccnc23)cc1 [RO1155697-000-005],inhibition at 10 µM,"BRAF; BRAF, compound concentration 10 uM, read-out: Percent Competition",97%
same,Percent Competition,CDK2; compound concentration 10 uM,93%
same,inhibition at 10 µM,"CSNK1E; CSNK1E, compound concentration 10 uM, read-out: Percent Competition",100%
same,Percent Competition,CSNK1G1; compound concentration 10 uM,78%
same,inhibition at 10 µM,"DYRK1B; DYRK1B, compound concentration 10 uM, read-out: Percent Competition",79%
same,Percent Competition,EGFR(L858R); compound concentration 10 uM,98%
same,inhibition at 10 µM,"FRK; FRK, compound concentration 10 uM, read-out: Percent Competition",85%
same,Percent Competition,JNK1; compound concentration 10 uM,100%
same,inhibition at 10 µM,"LATS1; LATS1, compound concentration 10 uM, read-out: Percent Competition",68%
same,inhibition at 10 µM,"MEK6; MEK6, compound concentration 10 uM, read-out: Percent Competition",66%
same,inhibition at 10 µM,"MRCKB; MRCKB, compound concentration 10 uM, read-out: Percent Competition",98%
same,inhibition at 10 µM,"STK35; STK35, compound concentration 10 uM, read-out: Percent Competition",79%
